{"source": "patent USRE50663E1", "about": "“Heterocycle derivatives as pesticides” (Bayer Aktiengesellschaft, priority 2017, dated 2025)", "assay_type_in_all_cases": "in vivo", "key": {"[1]": {"system": "adult cat fleas (Ctenocephalides felis)", "test": "Ctenocephalides felis oral test", "details": "48 h, 100 ppm in citrated cattle blood, after 2 days, read-out: efficacy (kill)", "in_short": "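Test compound in DMSO, diluted in citrated cattle blood to the test concentration and offered to ~20 unfed adults through a parafilm membrane. Kill % scored after 2 days (100% = all fleas dead, 0% = none).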"}, "[2]": {"system": "southern root-knot nematode (Meloidogyne incognita)", "test": "Meloidogyne incognita test", "details": "20 ppm, after 14 days, lettuce", "method": "Solvent: 125.0 parts by weight of acetone\nTo produce a suitable active compound formulation, 1 part by weight of active compound is mixed with the stated amount of solvent and the concentrate is diluted to the desired concentration with water.\nVessels are filled with sand, active compound solution, an egg/larvae suspension of the southern root-knot nematode (Meloidogyne incognita) and lettuce seeds. The lettuce seeds germinate and the plants develop. The galls develop on the roots.\nAfter 14 days, the nematicidal efficacy in % is determined by the formation of galls. 100% means that no galls were found; 0% means that the number of galls on the treated plants corresponds to the untreated control."}, "[3]": {"system": "caterpillars of the cotton bollworm (Heliothis armigera)", "test": "Comparative Heliothis armigera spray test (HELIAR)", "details": "Helicoverpa armigera, 168 h, 7 dat, read-out: % efficacy", "method": "(§1) Solvent: 14 parts by weight of dimethylformamide\n(§2) Emulsifier: alkylaryl polyglycol ether\n(§3) To produce a suitable active compound formulation, 1 part by weight of active compound is dissolved with the specified parts by weight of solvent and made up to the desired concentration with water containing an emulsifier concentration of 1000 ppm. To produce further test concentrations, the formulation is diluted with emulsifier-containing water. If the addition of ammonium salts or/and penetrants is required, these are each added in a concentration of 1000 ppm to the formulation solution.\nCotton plants (Gossypium hirsutum) are sprayed with an active compound formulation of the desired concentration and, after drying, populated with caterpillars of the cotton bollworm (Heliothis armigera).\n(§4) After the desired time, the kill in % is determined. 100% means that all caterpillars have been killed; 0% means that none of the caterpillars have been killed."}, "[4]": {"system": "adult cat fleas (Ctenocephalides felis)", "test": "Ctenocephalides felis in vitro contact test with adult cat fleas", "details": "application rate 5 μg/cm^2 (=500 g/ha), after 48 h, dead or moribund fleas", "method": "For the coating of the test tubes, 9 mg of active compound are first dissolved in 1 ml of acetone p.a. and then diluted to the desired concentration with acetone p.a. 250 μl of the solution are distributed homogeneously on the inner walls and the base of a 25 ml glass tube by turning and rocking on an orbital shaker (rocking rotation at 30 rpm for 2 h). With 900 ppm of active compound solution and internal surface area 44.7 cm^2, given homogeneous distribution, an area-based dose of 5 μg/cm^2 is achieved.\nAfter the solvent has evaporated off, the tubes are populated with 5-10 adult cat fleas (Ctenocephalides felis), sealed with a perforated plastic lid and incubated in a horizontal position at room temperature and ambient humidity. After 48 h, efficacy is determined. To this end, the tubes are stood upright and the fleas are knocked to the base of the tube. Fleas which remain motionless at the base or move in an uncoordinated manner are considered to be dead or moribund.\n100% efficacy means that all the fleas were dead or moribund. 0% efficacy means that no fleas were harmed."}, "[5]": {"system": "larvae of the mustard beetle (Phaedon cochleariae)", "test": "Comparative Phaedon cochleariae spray test (PHAECO)", "details": "168 h, 7 dat, read-out: % efficacy", "method": "as §1, §2, §3\nCabbage leaves (Brassica oleracea) are sprayed with an active ingredient formulation of the desired concentration and populated with larvae of the mustard beetle (Phaedon cochleariae).\nAfter the desired time, the kill in % is determined. 100% means that all the beetle larvae have been killed; 0% means that no beetle larvae have been killed."}, "[6]": {"system": "caterpillars of the armyworm (Spodoptera frugiperda)", "test": "Comparative Spodoptera frugiperda spray test (SPODFR)", "details": "168 h, 7 dat, read-out: % efficacy", "method": "as §1, §2, §3\nCotton leaves (Gossypium hirsutum) are sprayed with an active ingredient formulation of the desired concentration and populated with caterpillars of the armyworm (Spodoptera frugiperda).\nas §4"}, "[7]": {"system": "caterpillars of the fall armyworm (Spodoptera frugiperda)", "test": "Spodoptera frugiperda spray test", "details": "foliar, 168 h, 100 g/ha, after 7 days, maize leaf discs, read-out: efficacy", "in_short": "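Maize leaf discs sprayed with compound formulated in acetone/dimethylformamide and diluted in water with 1000 ppm alkylaryl polyglycol ether emulsifier, then infested with fall armyworm caterpillars once dry. Efficacy read after 7 days as % caterpillars killed (100% = all dead, 0% = none).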"}, "[8]": {"system": "larvae of the mustard beetle (Phaedon cochleariae)", "test": "Phaedon cochleariae spray test", "details": "foliar, 168 h, 100 g/ha, after 7 days, Chinese cabbage leaf discs, read-out: efficacy", "in_short": "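Chinese cabbage leaf discs sprayed with compound formulated in acetone/DMF and emulsifier-containing water, then infested with mustard beetle larvae after drying. Efficacy (% larvae killed) scored after 7 days.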"}, "[9]": {"system": "caterpillars of the armyworm (Spodoptera frugiperda)", "test": "Comparative Spodoptera frugiperda drench test (SPODFR D)", "details": "soil, 336 h, 14 dat, read-out: % efficacy", "method": "Solvent: 7 parts by weight of dimethylformamide\nEmulsifier: 2 parts by weight of alkylaryl polyglycol ether\nTo produce a suitable active ingredient formulation, 1 part by weight of active ingredient is mixed with the specified amounts of solvent and emulsifier, and the concentrate is diluted with water to the desired concentration, it being necessary to take into account the volume of soil which is drenched. It should be ensured that a concentration of 40 ppm of emulsifier in the soil is not exceeded. To produce further test concentrations, water is used for dilution.\nMaize plants (Zea mays) in pots of soil are watered with an active ingredient formulation of the desired concentration and infected with caterpillars of the armyworm (Spodoptera frugiperda).\nas §4"}}}
{"smiles": "CCS(=O)(=O)c1c(-c2nc3cc(C(F)(F)F)cnc3n2C)nc2cc(C3(C#N)CC3)ccn12", "note": "[Example I-11, 1-{3-(Ethylsulfonyl)-2-[3-methyl-6-(trifluoromethyl)-3H-imidazo[4,5-b]pyridin-2-yl]imidazo[1,2-a]pyridin-7-yl}cyclopropanecarbonitrile]", "values": [{"measurement": "pest or weed control at 100 ppm", "setting": "[1]", "result": 100, "unit": "%"}, {"measurement": "nematicidal efficacy (formation of galls)", "setting": "[2]", "result": 100, "unit": "%"}, {"measurement": "Emax at 0.16 ppm", "setting": "[3]", "result": 100, "unit": "%"}, {"measurement": "efficacy", "setting": "[4]", "result": 100, "unit": "%"}, {"measurement": "Emax at 0.8 ppm", "setting": "[5]; 0.8 ppm", "result": 60, "unit": "%"}, {"measurement": "Emax at 4 ppm", "setting": "[5]; 4 ppm", "result": 100, "unit": "%"}, {"measurement": "Emax at 0.16 ppm", "setting": "[6]", "result": 100, "unit": "%"}, {"measurement": "pest or weed control at 100 g/ha", "setting": "[7]", "result": 100, "unit": "%"}, {"measurement": "pest or weed control at 100 g/ha", "setting": "[8]", "result": 100, "unit": "%"}, {"measurement": "Emax at 0.16 ppm", "setting": "[9]", "result": 100, "unit": "%"}]}
